Data: patent US20110207726A1, “Inhibitors of Human Cathepsin L, Cathepsin B, and Cathepsin S” (The Trustees of the University of Pennsylvania, priority 2008, published 2011)
Where two headings read alike, the source gives them in different places.

How the values were obtained:
Type in all cases: biochemical
Human liver cathepsin B = biological target: T1, Human liver cathepsin B (Homo sapiens, UniProt P07858); assay: Cathepsin B assay, IC50 determination
T1 construct: Human liver cathepsin B (Calbiochem 219362, 65 ng/mL); purchased Calbiochem 219362; host or cells: human liver
Procedure: (§1) Human spleen cathepsin S (Calbiochem 219344, 40 ng/mL) was assayed using 15 microM Z-Phe-Arg-AMC substrate. Human liver cathepsin B (Calbiochem 219362, 65 ng/mL) was assayed using 15 microM Z-Arg-Arg-AMC substrate (Bachem I-1135). All reactions were performed in 20 mM sodium acetate buffer containing 1 mM EDTA and 5 mM cysteine, pH 5.5.
(§2) Compounds were serially diluted in DMSO and transferred into a 96-well Corning 3686 assay microplate to give a 16-point two-fold serial dilution dose response ranging from 25 microM to 760 pM. Human liver cathepsin L (Calbiochem 219402) was activated by incubating with assay buffer for 30 min. Upon activation, cathepsin L (300 pM, 8.7 ng/mL) was incubated with 1 microM Z-Phe-Arg-AMC substrate (Sigma C9521) and test compound in […] of assay buffer for 1 hour at room temperature. Fluorescence of AMC released by enzyme-catalyzed hydrolysis of Z-Phe-Arg-AMC was read on a PerkinElmer Envision microplate reader (excitation 355 nm, emission 460 nm). Data were scaled using internal controls and fitted to a four-parameter logistic model (IDBS XLfit equation 205) to obtain IC50 values in triplicate.
(§3) Compound No. 1 was assayed for inhibition against papain and cathepsins B, G, K, S, and V. Papain from Carica papaya (Calbiochem 5125, 11 ng/mL), human cathepsin K (Calbiochem 342001, 35 ng/mL), human spleen cathepsin S (Calbiochem 219344, 40 ng/mL), and human cathepsin V (Calbiochem 219467, 39 ng/ml) were assayed using Z-Phe-Arg-AMC substrate at 20 μM, 20 μM, 15 μM, and 1 μM, respectively. Human liver cathepsin B (Calbiochem 219362, 65 ng/mL) was assayed using 15 μM Z-Arg-Arg-AMC substrate (Bachem I-1135). Human neutrophil cathepsin G (Calbiochem 219373, 4.2 μg/mL) was assayed using 15 μM Suc-Ala-Ala-Pro-Phe-AMC substrate (Sigma S9761). All reactions were performed in 20 mM sodium acetate buffer containing 5 mM cysteine and 1 mM EDTA, pH 5.5. Reaction progress was monitored using the Envision microplate reader. IC50 values were measured in triplicate.

human liver cathepsin L = biological target: T2, human liver cathepsin L (Homo sapiens, UniProt P07711); assay: Cathepsin L assay, IC50 determination
T2 construct: 8.7 ng/mL human liver cathepsin L (Calbiochem 219402); purchased Calbiochem 219402; host or cells: human liver
Procedure: Assay buffer consisted of 20 mM sodium acetate, 1 mM ethylenediaminetetraacetic acid (EDTA) and 5 mM cysteine, pH 5.5. Cathepsin L was incubated in assay buffer for 30 minutes prior to dispensing into wells to allow for efficient reduction of the active site cysteine required for full enzymatic activity.
Upon activation, cathepsin L (300 pM, 8.7 ng/mL) was incubated with 1 microM Z-Phe-Arg-AMC substrate (Sigma C9521) and test compound in […] of assay buffer for 1 hour at room temperature.
All reactions were performed in 20 mM sodium acetate buffer containing 5 mM cysteine and 1 mM EDTA, pH 5.5. Reaction progress was monitored using the Envision microplate reader. IC50 values were measured in triplicate.

Human spleen cathepsin S = biological target: T3, Human spleen cathepsin S (Homo sapiens, UniProt P25774); assay: Cathepsin S assay, IC50 determination
T3 construct: Human spleen cathepsin S (Calbiochem 219344, 40 ng/mL); purchased Calbiochem 219344; host or cells: human spleen
Procedure: as §1, §2, §3

[1] = Table 17, n = 3, C, S or O at the sulfur position, read-out: Cathepsin L inhibitory activity IC50

T3 sequence (P25774 115-331): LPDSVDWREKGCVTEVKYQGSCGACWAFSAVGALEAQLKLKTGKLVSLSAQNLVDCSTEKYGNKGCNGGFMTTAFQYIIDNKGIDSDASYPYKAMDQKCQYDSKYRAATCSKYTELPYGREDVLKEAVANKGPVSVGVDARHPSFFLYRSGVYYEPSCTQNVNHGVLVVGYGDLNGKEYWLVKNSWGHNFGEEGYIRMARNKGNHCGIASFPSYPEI
T2 sequence (P07711 114-288 limits assumed): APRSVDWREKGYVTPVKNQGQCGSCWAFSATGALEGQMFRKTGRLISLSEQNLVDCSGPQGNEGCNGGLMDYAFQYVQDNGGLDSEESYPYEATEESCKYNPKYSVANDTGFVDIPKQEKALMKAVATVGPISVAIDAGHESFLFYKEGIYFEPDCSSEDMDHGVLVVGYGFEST
T2 sequence (P07711 292-333 limits assumed): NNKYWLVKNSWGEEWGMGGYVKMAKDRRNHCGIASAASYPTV

| Compound | IC50 (Human liver cathepsin B; Table 1, read-out: IC50 Cat B) [µM] | IC50 (human liver cathepsin L; Table 1, read-out: IC50 Cat L) [µM] | IC50 (Human spleen cathepsin S; Table 1, read-out: IC50 Cat S) [µM] | other results |
| --- | --- | --- | --- | --- |
| CC(C)(C)OC(=O)N[C@@H](COCc1ccccc1)C(=O)NNC(=O)SCC(=O)NCCc1ccccc1 [Compound No. 51] | > 25 | 0.51 | 0.65 |  |
| CCOC(=O)c1ccc(NC(=O)CSC(=O)NNC(=O)[C@H](Cc2ccc(OCc3ccccc3)cc2)NC(=O)OC(C)(C)C)cc1 [Compound No. 43] | > 25 | 0.14 | 1.08 |  |
| CC(C)(C)OC(=O)N1CCC[C@H]1C(=O)NNC(=O)SCC(=O)N1CCCc2ccccc21 [Compound No. 33] | > 25 | > 25 | > 25 |  |
| CCc1ccccc1NCCSC(=O)NNC(=O)[C@H](CC(C)C)NC(=O)OC(C)(C)C [Compound No. 30] | > 25 | > 25 | > 25 |  |
| CC(C)(C)OC(=O)N[C@@H](COCc1ccccc1)C(=O)NNC(=O)SCC(=O)NCCc1ccc(Br)cc1 [Compound No. 52] | > 25 | 0.58 | 0.91 |  |
| CCc1ccccc1NC(=O)CSC(=O)NNC(=O)[C@H](CCSC)NC(=O)OC(C)(C)C [Compound No. 17] | 2.03 | 1.29 | 0.69 |  |
| CC(C)(C)OC(=O)N[C@@H](Cc1ncc[nH]1)C(=O)NNC(=O)SCC(=O)N1CCCc2ccccc21 [Compound No. 66] | 11.6 | > 25 | > 25 |  |
| CCc1ccccc1NC(=O)CSC(=O)NNC(=O)[C@H](CCCCNC(=O)OCc1ccccc1)NC(=O)OC(C)(C)C [Compound No. 58] | 14.3 | 1.27 | 2.15 |  |
| CCc1ccccc1NC(=O)CSC(=O)NNC(=O)[C@@H](C)CO[Si](C)(C)C(C)(C)C [Compound No. 71] | > 25 | > 25 | > 25 |  |
| CCc1ccccc1NC(=O)CSC(=O)NNC(=O)[C@H](CCC(=O)O)NC(=O)OC(C)(C)C [Compound No. 27] | > 25 | ≥ 25 | > 25 |  |
| CC(C)(C)OC(=O)N[C@@H](Cc1c[nH]c2ccccc12)C(=O)NNC(=O)SCC(=O)N1CCc2ccc(Br)cc2C1c1ccccc1 (stereo partly shown) [Compound No. 13] | > 25 | 1.03 | 2.9 |  |
| CCc1ccccc1NC(=O)CSC(=O)NNC(=O)C[C@H](CCSC)NC(=O)OC(C)(C)C [Compound No. 76] | > 25 | 5.52 | 2.41 |  |
| COC(=O)CSC(=O)NNC(=O)[C@H](Cc1c[nH]c2ccccc12)NC(=O)OC(C)(C)C [Compound No. 15] | 6.33 | 0.098 | 0.57 |  |
| C[C@H](NC(=O)OC(C)(C)C)C(=O)NNC(=O)SCC(=O)N1CCCc2ccccc21 [Compound No. 26] | > 25 | ≥ 25 | > 25 |  |
| CCc1ccccc1NC(=O)CSC(=O)NNC(=O)[C@@H](C)COCc1ccc(OC)cc1 [Compound No. 72] | > 25 | > 25 | > 25 |  |
| CCc1ccccc1NC(=O)CSC(=O)NNC(=O)[C@@H](NC(=O)OC(C)(C)C)C(C)OCc1ccccc1 (stereo partly shown) [Compound No. 44] | 3.67 | 13.7 | 3.32 |  |

| Compound | IC50 (Human liver cathepsin B; Table 1, read-out: IC50 Cat B) [µM] | IC50 (human liver cathepsin L; Table 1, read-out: IC50 Cat L) [µM] | IC50 (Human spleen cathepsin S; Table 1, read-out: IC50 Cat S) [µM] | other results |
| --- | --- | --- | --- | --- |
| CC(C)(C)OC(=O)N[C@@H](CCCCNC(=O)OCc1ccccc1)C(=O)NNC(=O)SCC(=O)N1CCCc2ccccc21 [Compound No. 57] | 4.35 | > 25 | 5.15 |  |
| CC(C)[C@H](NC(=O)OC(C)(C)C)C(=O)NNC(=O)SCC(=O)N1CCc2ccccc21 [Compound No. 23] | 0.44 | 0.45 | 7.24 |  |
| CCOC(=O)c1cccc(NC(=O)CSC(=O)NNC(=O)[C@H](Cc2c[nH]c3ccccc23)NC(=O)OC(C)(C)C)c1 [Compound No. 8] | > 25 | 0.062 | 0.68 |  |
| CC(C)(C)OC(=O)N[C@@H](CCC(=O)NC1c2ccccc2Oc2ccccc21)C(=O)NNC(=O)SCC(=O)N1CCCc2ccccc21 [Compound No. 60] | > 25 | > 25 | > 25 |  |
| CCc1ccccc1NC(=O)CSC(=O)NNC(=O)[C@H](CC(C)C)NC(=O)OC(C)(C)C [Compound No. 29] | 2.63 | 1.09 | 1.65 |  |
| CC(C)[C@H](NC(=O)OC(C)(C)C)C(=O)NNC(=O)SCC(=O)Nc1ccc2c(c1)CCCC2 [Compound No. 24] | > 25 | 0.11 | 0.62 |  |
| CCc1ccccc1NC(=O)COC(=O)NNC(=O)[C@H](Cc1c[nH]c2ccccc12)NC(=O)OC(C)(C)C [Compound No. 93] |  |  |  | IC50 (Human liver cathepsin B; Tables 2-11, read-out: Cat B): ≥ 25 µM; IC50 (human liver cathepsin L; Tables 2-11, read-out: Cat L): 0.011 µM; IC50 (Human spleen cathepsin S; Tables 2-11, read-out: Cat S): 0.062 µM |
| CC(C)(C)OC(=O)NC(Cc1c[nH]c2ccccc12)C(=O)NNC(=O)SCC(=O)N1CCCc2ccccc21 (stereo not shown) [Tetrahydroquinoline S] |  |  |  | IC50 (human liver cathepsin L; [1]): 0.041 ± 0.002 µM |
| CC(C)(C)OC(=O)N[C@@H](Cc1ccc(OCc2ccccc2)cc1)C(=O)NNC(=O)SCC(=O)N1CCOc2ccccc21 [Compound No. 41] | 3.03 | 1.56 | 3.98 |  |
| C/C=C(/C=O)[C@@H](CC=O)CC(=O)OCCc1ccc(O)cc1 [Compound No. 121] |  |  |  | IC50 (Human liver cathepsin B; Tables 2-11, read-out: Cat B): ≥ 25 µM; IC50 (human liver cathepsin L; Tables 2-11, read-out: Cat L): ≥ 25 µM; IC50 (Human spleen cathepsin S; Tables 2-11, read-out: Cat S): ≥ 25 µM |
| CC(C)[C@@H](CC(=O)NNC(=O)SCC(=O)N1CCCc2ccccc21)NC(=O)OC(C)(C)C [Compound No. 79] | 15.8 | > 25 | > 25 |  |
| CCc1ccccc1NC(=O)CSC(=O)NNC(=O)[C@H](Cc1ncc[nH]1)NC(=O)OC(C)(C)C [Compound No. 65] | 13.7 | > 25 | > 25 |  |
| CCc1ccccc1NC(=O)CSC(=O)NNC(=O)[C@@H]1CCCN1C(=O)OC(C)(C)C [Compound No. 32] | > 25 | > 25 | > 25 |  |
| CCc1ccccc1NC(=O)CSC(=O)NNC(=O)[C@@H](Cc1c[nH]c2ccccc12)NC(=O)OC(C)(C)C [R-enantiomer of Compound No. 1] |  |  |  | IC50 (human liver cathepsin L; read-out: IC50 against cathepsin L): 34 µM |
| CCc1ccccc1NC(=O)COC(=O)NNC(=O)C(Cc1c[nH]c2ccccc12)NC(=O)OC(C)(C)C (stereo not shown) [2-ethylanilide O] |  |  |  | IC50 (human liver cathepsin L; [1]): 0.028 ± 0.004 µM |
| CCc1ccccc1NC(=O)CSc1nnc([C@@H](N)Cc2c[nH]c3ccccc23)o1 [Compound (ii)] |  |  |  | cathepsin L inhibitory activity (in words) (human liver cathepsin L): completely devoid of activity |
